Measured values taken from patent US11246949B2, “Imaging contrast agents and uses thereof” (The Research Foundation for The State University of New York, priority 2011, dated 2022).

Key:
[1] = Ascorbate consumption (redox cycling, reactive oxygen species generation); conditions: 100 μM ascorbate, 10 μM Fe(II), 10 μM ligand, 10 mM HEPES, pH 7.4, 37° C.
[2] = Electrochemical potential E° vs. NHE; type: physicochemical; conditions: 100 mM tetrabutylammonium hexafluorophosphate in acetonitrile
Excerpt: In an embodiment, the compounds of the invention are stable towards chemical reaction in an oxidative environment (i.e., in the presence of biologically relevant concentrations of peroxide or oxygen). In an embodiment, the stability in an oxidative environment can be related to the reduction potential of the complex. In an embodiment, the compounds of the present invention have a reduction potential greater than 600 mV vs. NHE (Normal Hydrogen Electrode) as shown in Table 1. Generally, the compounds of the invention have a reduction potential above 800 mV vs. NHE.

[3] = pH-potentiometric titrations: acid-dissociation and ligand-Fe(II) equilibrium constants; type: physicochemical; conditions: for formation constant log K (binding of macrocycle to metal ion): 100 mM NaCl
Experimental: FIG. 10. Representative pH-potentiometric titrations for Fe(L1) and Fe(L3) in 100 mM NaCl at 25° C.
Fe(II) paraCEST agents were developed by preparing ligands that stabilize Fe(II) and Ni(II), contain multiple exchangeable protons to enhance the CEST effect and form six or eight coordinate complexes to protect the Fe(II) from binding additional ligands that might complicate the CEST signal. The sexadentate ligands contained the macrocycle, 1,4,7-triazacyclononane, with three pendent groups while the octadentate ligands contained 1,4,7,10-tetraazacyclododecane and four pendent groups (FIG. 1 and FIG. 2). Pyridine pendent groups stabilize Fe(II) relative to Fe(III) (L2, L3), and amide pendent groups are stabilizing of Fe(II) (L1). For example, the pyridine groups in Fe(L3) lead to a high reduction potential of +930 mV vs. NHE. Amide groups contain exchangeable protons and have been commonly used as a basis for Ln(III) paraCEST agents. In contrast, amino pyridine pendent groups and the benzimidazole groups have exchangeable protons that are one bond further away from the Fe-coordinated nitrogen of the pyridine ring. Exchangeable protons close to the Fe(II) center as well as more remotely located protons appended to a ligand pi-system have been studied in this work in order to capitalize on both the dipolar and contact shift contributions of paramagnetic Fe(II). The strategy of using exchangeable protons that are remote from the metal ion center was explored in order to capitalize on both the dipolar and contact shift contributions of paramagnetic Fe(II). Fe(II) complexes were prepared in acetonitrile or in aqueous solution by simple addition of the free base form of the ligands to Fe(CF3SO3)2.

[4] = Dissociation of the metal ion complex (kinetic inertness); type: physicochemical
[5] = Persistence of high spin Fe(II) oxidation state in aqueous solution (1H NMR, μeff); type: physicochemical; conditions: atmospheric oxygen, several days
Experimental: Effective magnetic moments are characteristic of high spin Fe(II) at 5.1 BM and 5.8 BM for Fe(L1) and Fe(L2), These were measured in 100 mM NaCl in D2O, pH 7.4, and D2O at pH 7.0, respectively. The ^1H NMR spectra of the two complexes show highly shifted proton resonances (FIGS. 4-5). There are nine non-exchangeable proton resonances for Fe(L2) consistent with trigonal prismatic geometry as observed previously for Fe(L3) and three sets of four chemically inequivalent proton resonances in the macrocycle backbone. […] The exchangeable amide and amine protons were identified by comparison of the ^1H NMR spectra of the complexes in H2O and […]. For Fe(L1), the amide protons are highly shifted downfield, appearing at 77 ppm. The amine protons of Fe(L2) are only slightly shifted and are observed at 11 ppm.
Generally, macrocyclic complexes in FIG. 1 are prepared from the macrocycle and Fe(II) salt such as FeCl2, or Fe(CF3SO3)2 in acetonitrile at room temperature with argon bubbled through the solvent. This helps to ensure that a negligible amount of O2 is present in the reaction flask. In the absence of an inert atmosphere, difficulties in maintaining the desired oxidation state may arise through mechanisms such as oxidation of the metal to Fe(III) prior to complexation with the ligand. […]

Row | SMILES | Ascorbate consumption [1] | E° vs. NHE [2] [mV] | formation constant log K (binding of macrocycle to metal ion) [3] | resistance to dissociation >12 h, neutral pH [4] | also measured
1 | O=C([O-])CN(CCN(CC(=O)[O-])CC(=O)[O-])CC(=O)[O-].[Fe+3] [Fe(EDTA), reference compound] | 77 ± 13 ×10^−5 (s^−1) | 390 | – | – | –
2 | NC(=O)CN1CCN(CC(N)=O)CCN(CC(N)=O)CC1.[Fe+2] [Fe(L1)] | 7.2 ± 0.96 ×10^−5 (s^−1) | 860 ± 9 | 13.5 | Moderate | Log K1 ([3]; K1 = [LH+]/([L][H+]), 1.05 mM L, 1.0 mM Fe(OTf)2, 0.10 M NaCl, 25° C.): 10.19 ± 0.11; Log K2 ([3]; K2 = [LH2 2+]/([LH+][H+]), 0.10 M NaCl, 25° C.): <2; Log K3 ([3]; K3 = [LH3 3+]/([LH2 2+][H+]), 0.10 M NaCl, 25° C.): <2; Log K Fe-L ([3]; KFeL = [FeL2+]/([Fe2+][L]), 0.10 M NaCl, 25° C.): 13.47 ± 0.25; Log K FeL-OH ([3]; KFeL-OH = [FeL-OH+]/([FeL2+][OH−]), 0.10 M NaCl, 25° C.): 9.43 ± 0.18; Log K Fe-LH ([3]; KFeLH = [FeLH3+]/([FeL2+][H+]), 0.10 M NaCl, 25° C.): 5.54 ± 0.14; % dissociation over 12 hours ([4]; 12 hours): <9%; resistance to oxidation to Fe(III) [5]: resistant to oxidation to Fe(III)
3 | Cc1nc(CN2CCN(Cc3ccc(N)c(C)n3)CCN(Cc3ccc(N)c(C)n3)CC2)ccc1N.[Fe+2] [Fe(L2)] | – | – | – | good | resistance to oxidation to Fe(III) [5]: resistant to oxidation to Fe(III)
4 | NC(=O)CN1CCN(CC(N)=O)CCN(CC(N)=O)CCN(CC(N)=O)CC1.[Fe+2] [Fe(L4)] | 4.0 ± 1.0 ×10^−5 (s^−1) | 800 ± 5 | 7.5 | excellent | % dissociation over 12 hours ([4]; 12 hours): 0%; dissociation after incubation ([4]; 12 hours, 37° C., pH 4 or neutral pH with five equivalents of CuCl2 or ZnCl2): no dissociation
5 | [Fe+2].c1ccc2[nH]c(CN3CCN(Cc4nc5ccccc5[nH]4)CCN(Cc4nc5ccccc5[nH]4)CC3)nc2c1 [Fe(L5)] | – | – | – | moderate | –
6 | CC(O)CN1CCN(CC(C)O)CCN(CC(C)O)CCN(CC(C)O)CC1.[Fe+2] (centres unmarked) [Fe(L6)] | – | – | 9.3 | Moderate | –
7 | CC(O)CN1CCNCCN(CC(C)O)CCNCC1.[Fe+2] (centres unmarked) [Fe(L7)] | – | – | – | moderate | –
8 | Nc1cccc(CN2CCN(Cc3cccc(N)n3)CCN(Cc3cccc(N)n3)CC2)n1.[Fe+2] [Fe(L8)] | – | – | – | good | –
9 | NC(=O)CN1CCN(CC(N)=O)CCN(CC(N)=O)CC1.[Ni+2] [Ni(L1)] | – | – | – | good | inertness towards dissociation in solution ([4]; neutral and acidic pH, at least 24 hours): inert towards dissociation
